This is an account of results in patent US7667022B2, “Promoter for high-throughput screening for inhibitors against Mycobacteria under low carbon conditions” (Council of Scientific & Industrial Research, priority 2003, dated 2010).

Usually % inhibition of growth stands for the share of the control response that was lost under treatment.

Molecules are shown by their SMILES.

For this test, the system named is Mycobacterium smegmatis, mc^2155. Briefly: Percent inhibition of growth of liquid culture (optical density vs control without antibiotic) at 2% or 0.02% glucose. The test is classed as cell-based. The following applies: for % inhibition of growth at 0.02% Glucose: 0.02% Glucose (starved).

Regarding `CC[C@@H](CO)NCCN[C@@H](CC)CO` [Ethambutol], the “% inhibition of growth at 0.02% Glucose” value is listed as 37% (0.15 μgm/ml), 66% (0.31 μgm/ml), 68% (0.63 μgm/ml) and 72% (1.25 μgm/ml). Besides, the “% inhibition of growth at 2% Glucose” value is, setting by setting: (0.15 μgm/ml) 44%; (0.31 μgm/ml) 85%; (0.63 μgm/ml) 91%; (1.25 μgm/ml) 93%.
Turning to `NNC(=O)c1ccncc1` [Isoniazide], the “% inhibition of growth at 0.02% Glucose” value runs as follows: (0.8 μgm/ml) 12%; (1.6 μgm/ml) 30%; (3.2 μgm/ml) 70%; (6.4 μgm/ml) 78%. The “% inhibition of growth at 2% Glucose” value reads like this: (0.8 μgm/ml) 33%; (1.6 μgm/ml) 70%; (3.2 μgm/ml) 90%; (6.4 μgm/ml) 96%.
For the molecule `CO[C@H]1/C=C/O[C@@]2(C)Oc3c(C)c(O)c4c(O)c(c(/C=N/N5CCN(C)CC5)c(O)c4c3C2=O)NC(=O)/C(C)=C\C=C\[C@H](C)[C@H](O)[C@@H](C)[C@@H](O)[C@@H](C)[C@H](OC(C)=O)[C@@H]1C` [Rifampicin], the “% inhibition of growth at 0.02% Glucose” value is 9% (0.25 μgm/ml), 17% (0.5 μgm/ml), 29% (1.0 μgm/ml) and 68% (2.0 μgm/ml). Further, the “% inhibition of growth at 2% Glucose” value is 39% (0.25 μgm/ml), 58% (0.5 μgm/ml), 70% (1.0 μgm/ml) and 89% (2.0 μgm/ml). The “reduction of inhibition of growth in the presence of the promoter under a stationary or a starved state” value (stationary or starved state) is listed as “about 20%”.
